Measured values published in PubChem BioAssay AID256 (DTP/NCI, 2004).
Values joined by “and” are separate entries in the source; they are usually repeats but may differ in a detail not shown here. Identical values can stand only once. Toxic doses and inconclusive results are not listed. Starred links: 1 amine or outer side, 2 acyl side, 3 side chain; linkers in the order of their positions; H or OH if unused. Non-standard residues stand in square brackets, D forms with d. Residues, ends and D or L forms follow the SMILES beside them. *: point of attachment. X2 = CCC(=O)CC1CC(C)CC(C(=O)[*:2])N1[*:1]; X1 = CCCCCCCCC(C)C(=O)*; Aib = CC(C)(N)C(=O)O; X3 = CC(CN(C)CCO)N*

Tested on: CD2F1 mice, L1210 leukemia ip, survival T/C
Assay: NCI In Vivo Anticancer Drug Screen. Data for tumor model L1210 Leukemia (intraperitoneal) in CD2F1 (CDF1) mice
Conditions: higher = longer survival
Summary of the method: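 Tumor-bearing mice (transplanted tumor) were split into treated and vehicle control groups, and the measured endpoint of each treated group was divided by that of its vehicle controls.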

[1] = endpoint: mean survival time, dose: 100.0 mg/kg/injection, schedule: Q01DX001 (ip), vehicle: saline
[2] = endpoint: mean survival time, dose: 200.0 mg/kg/injection, schedule: Q01DX001 (ip), vehicle: saline
[3] = endpoint: mean survival time, dose: 100.0 mg/kg/injection, schedule: Q01DX009 (ip), vehicle: saline with Tween-80
[4] = endpoint: mean survival time, dose: 200.0 mg/kg/injection, schedule: Q01DX009 (ip), vehicle: saline with Tween-80
[5] = endpoint: mean survival time, dose: 12.5 mg/kg/injection, schedule: Q01DX005 (ip), vehicle: distilled water + Tween-80
[6] = endpoint: mean survival time, dose: 25.0 mg/kg/injection, schedule: Q01DX005 (ip), vehicle: distilled water + Tween-80
[7] = endpoint: mean survival time, dose: 50.0 mg/kg/injection, schedule: Q01DX005 (ip), vehicle: distilled water + Tween-80
[8] = endpoint: mean survival time, dose: 100.0 mg/kg/injection, schedule: Q01DX005 (ip), vehicle: distilled water + Tween-80
[9] = endpoint: mean survival time, dose: 50.0 mg/kg/injection, schedule: Q01DX009 (ip), vehicle: saline with Tween-80
[10] = endpoint: mean survival time, dose: 100.0 mg/kg/injection, schedule: Q04DX003 (ip), vehicle: saline with Tween-80
[11] = endpoint: mean survival time, dose: 100.0 mg/kg/injection, schedule: Q01DX001 (ip), vehicle: saline with Tween-80
[12] = endpoint: mean survival time, dose: 200.0 mg/kg/injection, schedule: Q01DX001 (ip), vehicle: saline with Tween-80
[13] = endpoint: mean survival time, dose: 400.0 mg/kg/injection, schedule: Q01DX001 (ip), vehicle: saline with Tween-80

## COC1CC(C)C(OC)c2cc(O)cc(c2O)NC(=O)/C(C)=C/C=C\C(C)C(OC(N)=O)/C(C)=C\C(C)C1OC (configuration not stated)
endpoint: median survival time, dose: 1.25 mg/kg/injection, schedule: Q01DX009 (ip), vehicle: saline + alcohol
  T/C: 105 % of control
endpoint: median survival time, dose: 2.5 mg/kg/injection, schedule: Q01DX009 (ip), vehicle: saline + alcohol
  T/C: 105 % of control
endpoint: median survival time, dose: 5.0 mg/kg/injection, schedule: Q01DX009 (ip), vehicle: saline + alcohol
  T/C: 105 % of control
endpoint: median survival time, dose: 10.0 mg/kg/injection, schedule: Q01DX009 (ip), vehicle: saline + alcohol
  T/C: 110 % of control
endpoint: median survival time, dose: 20.0 mg/kg/injection, schedule: Q01DX009 (ip), vehicle: saline + alcohol
  T/C: 107 % of control

## C(=N\C(/N=C/c1ccccc1)c1ccccc1)/c1ccccc1
[1]
  T/C: 100 % of control
[2]
  T/C: 103 % of control
endpoint: mean survival time, dose: 400.0 mg/kg/injection, schedule: Q01DX001 (ip), vehicle: saline
  T/C: 106 % of control

## S=C(S)Nc1ccc(Cc2ccc(NC(=S)S)cc2)cc1
[3]
  T/C: 98 % of control
[4]
  T/C: 96 % of control
endpoint: mean survival time, dose: 400.0 mg/kg/injection, schedule: Q01DX009 (ip), vehicle: saline with Tween-80
  T/C: 93 % of control

## CCCCCCCC(=O)Nc1ncnc2c1ncn2C1OC(COC(C)=O)C(OC(C)=O)C1OC(C)=O (configuration not stated)
[5]
  T/C: 98 % of control
[6]
  T/C: 91 % of control
[7]
  T/C: 98 % of control
[8]
  T/C: 94 % of control

## O=Cc1c2ccccc2cc2ccccc12
endpoint: mean survival time, dose: 89.0 mg/kg/injection, schedule: Q01DX001 (ip), vehicle: saline
  T/C: 170 % of control
endpoint: mean survival time, dose: 133.0 mg/kg/injection, schedule: Q01DX001 (ip), vehicle: saline
  T/C: 167 % of control
[2]
  T/C: 162 % of control

## Brc1nc(Br)c(Br)[nH]1
endpoint: mean survival time, dose: 25.0 mg/kg/injection, schedule: Q01DX009 (ip), vehicle: saline with Tween-80
  T/C: 86 % of control
[9]
  T/C: 95 % of control
[3]
  T/C: 92 % of control
[10]
  T/C: 100 % of control

## Cc1ccc(SC(=O)Cc2ccc([N+](=O)[O-])cc2)cc1
[11]
  T/C: 92 % of control
[12]
  T/C: 88 % of control
[13]
  T/C: 93 % of control

## O=C1OCCC1C(=O)C(O)(C(F)(F)F)C(F)(F)F (configuration not stated)
endpoint: mean survival time, dose: 100.0 mg/kg/injection, schedule: Q04DX003 (ip), vehicle: other
  T/C: 113 % of control
endpoint: mean survival time, dose: 200.0 mg/kg/injection, schedule: Q04DX003 (ip), vehicle: other
  T/C: 87 % of control
endpoint: mean survival time, dose: 400.0 mg/kg/injection, schedule: Q04DX003 (ip), vehicle: other
  T/C: 107 % of control

## O=c1c2ccccc2on1-c1ncnc2nc[nH]c12
endpoint: mean survival time, dose: 12.5 mg/kg/injection, schedule: Q01DX005 (ip), vehicle: other
  T/C: 105 % of control
endpoint: mean survival time, dose: 25.0 mg/kg/injection, schedule: Q01DX005 (ip), vehicle: other
  T/C: 113 % of control
endpoint: mean survival time, dose: 50.0 mg/kg/injection, schedule: Q01DX005 (ip), vehicle: other
  T/C: 111 % of control
endpoint: mean survival time, dose: 100.0 mg/kg/injection, schedule: Q01DX005 (ip), vehicle: other
  T/C: 95 % of control

## O=S(=O)(O)CCCl
[9]
  T/C: 96 % of control
[3]
  T/C: 96 % of control
[4]
  T/C: 96 % of control

## NS(=O)(=O)c1cccc([N+](=O)[O-])c1
[11]
  T/C: 95 % of control
[12]
  T/C: 92 % of control
[13]
  T/C: 97 % of control

## CC(=O)OC1C(N=[N+]=[N-])C(OC(C)=O)C(OC(C)=O)C(OC(C)=O)C1OC(C)=O (configuration not stated)
endpoint: mean survival time, dose: 100.0 mg/kg/injection, schedule: Q01DX001 (ip), vehicle: Klucel (hydroxypropylcellulose) (HPC)
  T/C: 93 % of control
endpoint: mean survival time, dose: 200.0 mg/kg/injection, schedule: Q01DX001 (ip), vehicle: Klucel (hydroxypropylcellulose) (HPC)
  T/C: 95 % of control
endpoint: mean survival time, dose: 400.0 mg/kg/injection, schedule: Q01DX001 (ip), vehicle: Klucel (hydroxypropylcellulose) (HPC)
  T/C: 103 % of control

## CCCCCCCCC(C)C(=O)N1CCCC1C(=O)N1C(CC(=O)CC)CC(C)CC1C(=O)NC(C)C(=O)NC(C)(C)C(=O)NC(C)(C)C(=O)NC(C(=O)NC(C)C(=O)NC(C)(C)C(=O)NC(C)(C)C(=O)NC(C)CN(C)CCO)C(C)CC (configuration not stated) (X1-P[X2]A[Aib][Aib]IA[Aib][Aib]-X3; configuration not given here)
endpoint: mean survival time, dose: 0.15 mg/kg/injection, schedule: Q01DX009 (ip), vehicle: Klucel (hydroxypropylcellulose) (HPC)
  T/C: 110 % of control
endpoint: mean survival time, dose: 0.31 mg/kg/injection, schedule: Q01DX009 (ip), vehicle: Klucel (hydroxypropylcellulose) (HPC)
  T/C: 111 % of control and 112 % of control
endpoint: mean survival time, dose: 0.62 mg/kg/injection, schedule: Q01DX009 (ip), vehicle: Klucel (hydroxypropylcellulose) (HPC)
  T/C: 115 % of control and 104 % of control
endpoint: mean survival time, dose: 1.25 mg/kg/injection, schedule: Q01DX009 (ip), vehicle: Klucel (hydroxypropylcellulose) (HPC)
  T/C: 122 % of control and 108 % of control
endpoint: mean survival time, dose: 2.5 mg/kg/injection, schedule: Q01DX009 (ip), vehicle: Klucel (hydroxypropylcellulose) (HPC)
  T/C: 115 % of control and 117 % of control
endpoint: mean survival time, dose: 5.0 mg/kg/injection, schedule: Q01DX009 (ip), vehicle: Klucel (hydroxypropylcellulose) (HPC)
  T/C: 103 % of control

## COc1ccc(N=C(C(=O)c2ccccc2)c2ccccc2)cc1
[11]
  T/C: 95 % of control
[12]
  T/C: 93 % of control
[13]
  T/C: 100 % of control

## OC(CCc1ccccc1)(C(F)(F)F)C(F)(F)F
endpoint: mean survival time, dose: 100.0 mg/kg/injection, schedule: Q04DX003 (ip), vehicle: Klucel (hydroxypropylcellulose) (HPC)
  T/C: 92 % of control
endpoint: mean survival time, dose: 200.0 mg/kg/injection, schedule: Q04DX003 (ip), vehicle: Klucel (hydroxypropylcellulose) (HPC)
  T/C: 95 % of control
endpoint: mean survival time, dose: 400.0 mg/kg/injection, schedule: Q04DX003 (ip), vehicle: Klucel (hydroxypropylcellulose) (HPC)
  T/C: 97 % of control

## CC1C(=O)OC2C1CCC1(C)C=CC(=O)C(C)C21 (configuration not stated)
endpoint: mean survival time, dose: 5.0 mg/kg/injection, schedule: Q04DX002 (ip), vehicle: saline with Tween-80
  T/C: 108 % of control
endpoint: mean survival time, dose: 10.0 mg/kg/injection, schedule: Q04DX002 (ip), vehicle: saline with Tween-80
  T/C: 100 % of control
endpoint: mean survival time, dose: 20.0 mg/kg/injection, schedule: Q04DX002 (ip), vehicle: saline with Tween-80
  T/C: 108 % of control
endpoint: mean survival time, dose: 100.0 mg/kg/injection, schedule: Q04DX002 (ip), vehicle: saline with Tween-80
  T/C: 116 % of control
endpoint: mean survival time, dose: 200.0 mg/kg/injection, schedule: Q04DX002 (ip), vehicle: saline with Tween-80
  T/C: 120 % of control

## C=C(C)C12OC3(c4ccccc4)OC1C1C4OC4(CO)C(O)C4(O)C(=O)C(C)=CC4C1(O3)C(C)C2OC(=O)c1ccccc1 (configuration not stated)
endpoint: mean survival time, dose: 0.1 mg/kg/injection, schedule: Q01DX009 (ip), vehicle: saline
  T/C: 96 % of control
endpoint: mean survival time, dose: 0.2 mg/kg/injection, schedule: Q01DX009 (ip), vehicle: saline
  T/C: 98 % of control
endpoint: mean survival time, dose: 0.4 mg/kg/injection, schedule: Q01DX009 (ip), vehicle: saline
  T/C: 98 % of control
endpoint: mean survival time, dose: 0.8 mg/kg/injection, schedule: Q01DX009 (ip), vehicle: saline
  T/C: 100 % of control

## CSc1nn(C2OC(CO)C(O)C2O)c(=O)[nH]c1=O (configuration not stated)
[5]
  T/C: 102 % of control
[6]
  T/C: 95 % of control
[7]
  T/C: 98 % of control
[8]
  T/C: 102 % of control
endpoint: mean survival time, dose: 200.0 mg/kg/injection, schedule: Q01DX005 (ip), vehicle: distilled water + Tween-80
  T/C: 104 % of control

## CCC(C)CC(C)N (configuration not stated)
[1]
  T/C: 104 % of control

## CCNC(=S)N(Cc1ccccc1)Cc1ccccc1
endpoint: mean survival time, dose: 50.0 mg/kg/injection, schedule: Q04DX003 (ip), vehicle: saline with Tween-80
  T/C: 103 % of control
[10]
  T/C: 89 % of control and 98 % of control
endpoint: mean survival time, dose: 200.0 mg/kg/injection, schedule: Q04DX003 (ip), vehicle: saline with Tween-80
  T/C: 100 % of control
endpoint: mean survival time, dose: 400.0 mg/kg/injection, schedule: Q04DX003 (ip), vehicle: saline with Tween-80
  T/C: 87 % of control

## CS(=O)(=O)OCCN(CCOS(C)(=O)=O)c1ccc(N=O)cc1
endpoint: mean survival time, dose: 0.25 mg/kg/injection, schedule: Q01DX009 (ip), vehicle: saline
  T/C: 101 % of control
endpoint: mean survival time, dose: 0.5 mg/kg/injection, schedule: Q01DX001 (ip), vehicle: saline
  T/C: 113 % of control
endpoint: mean survival time, dose: 0.5 mg/kg/injection, schedule: Q01DX005 (ip), vehicle: saline
  T/C: 103 % of control
endpoint: mean survival time, dose: 0.5 mg/kg/injection, schedule: Q01DX009 (ip), vehicle: saline
  T/C: 91 % of control
endpoint: mean survival time, dose: 1.0 mg/kg/injection, schedule: Q01DX005 (ip), vehicle: saline
  T/C: 114 % of control
endpoint: mean survival time, dose: 1.0 mg/kg/injection, schedule: Q04DX003 (ip), vehicle: saline
  T/C: 97 % of control
endpoint: mean survival time, dose: 2.0 mg/kg/injection, schedule: Q01DX001 (ip), vehicle: saline
  T/C: 114 % of control
endpoint: mean survival time, dose: 2.0 mg/kg/injection, schedule: Q04DX003 (ip), vehicle: saline
  T/C: 97 % of control
endpoint: mean survival time, dose: 7.5 micrograms/kg/injection, schedule: Q03HX024 (ip), vehicle: saline
  T/C: 234 % of control
endpoint: mean survival time, dose: 31.3 micrograms/kg/injection, schedule: Q03HX024 (ip), vehicle: saline
  T/C: 115 % of control
